Data reported in ChEMBL document CHEMBL4130462, “Natural isoflavone biochanin A as a template for the design of new and potent 3-phenylquinolone efflux inhibitors against Mycobacterium avium” (Eur J Med Chem, 2017).
Values after ≈ are worked out from the molar mass of the structure shown.

What was measured:
Mycobacterium avium [1] = settings: isolate MAV2
Description: Inhibition of multidrug resistance efflux pump in Mycobacterium avium isolate MAV2 assessed as potentiation of ofloxacin-induced antibacterial activity by measuring ofloxacin MIC at 1/4 MIC incubated for 3 days by MTT assay

Mycobacterium avium [2] = settings: 104 mc'2 3
Mycobacterium avium [3] = settings: isolate MAV2; remark: listed apart in the source
Mycobacterium avium [4] = settings: 104 mc'2 3; remark: listed apart in the source
Mycobacterium avium [5] = settings: isolate MAV2; remark: listed apart in the source
Mycobacterium avium [6] = settings: isolate MAV3
[7] = system: Mycobacterium avium subsp. avium ATCC 25291
Mycobacterium avium [8] = assay: Antimycobacterial activity against Mycobacterium avium ATCC 25291 assessed as reduction in bacterial viability incubated for 3 days by MTT assay; type: organism-based; settings: mycobacterium avium subsp. avium atcc 25291, 72 h
Mycobacterium avium [9] = settings: 104
Mycobacterium avium [10] = settings: isolate MAV4
Mycobacterium avium [11] = settings: isolate MAV3; remark: listed apart in the source
Mycobacterium avium [12] = settings: isolate MAV2; remark: listed apart in the source
Mycobacterium avium [13] = settings: in vivo, 72 h
Description: Antimycobacterial activity against Mycobacterium avium 104 mc'2 4 assessed as reduction in bacterial viability incubated for 3 days by MTT assay

[14] = system: Mycobacterium avium subsp. avium ATCC 25291; remark: listed apart in the source
[15] = Cytotoxicity in human monocyte-derived macrophages assessed as reduction in cell viability incubated for 3 days by alamar blue dye based assay; design: species or system Macrophage cell line; settings: for CC50 at 72 h: human monocyte-derived macrophages; for MTC: macrophage cell line, 72 h
Mycobacterium avium [16] = settings: isolate MAV4; remark: listed apart in the source
Mycobacterium avium [17] = settings: 104; remark: listed apart in the source
Mycobacterium avium [18] = settings: 104 mc'2 4
Mycobacterium avium [19] = settings: 104; remark: listed apart in the source
Mycobacterium avium [20] = assay: Antimycobacterial activity against Mycobacterium avium isolate MAV2 assessed as reduction in bacterial viability incubated for 3 days by MTT assay; type: organism-based; settings: 72 h
[21] = Safety index, ratio of CC50 for test compound to CC50 for thioridazine for cytotoxicity in human monocyte-derived macrophages; type: cell-based, Macrophage cell line
Mycobacterium avium [22] = settings: 72 h
Description: Antimycobacterial activity against Mycobacterium avium 104 assessed as reduction in bacterial viability incubated for 3 days by MTT assay

Mycobacterium avium [23] = assay: Antimycobacterial activity against Mycobacterium avium isolate MAV4 assessed as reduction in bacterial viability incubated for 3 days by MTT assay; type: organism-based; settings: 72 h
Mycobacterium avium [24] = settings: isolate MAV2; remark: listed apart in the source
Mycobacterium avium [25] = settings: 104; remark: listed apart in the source
Description: Inhibition of multidrug resistance efflux pump in Mycobacterium avium 104 assessed as potentiation of clarithromycin -induced antibacterial activity by measuring clarithromycin MIC at 1/2 MIC incubated for 3 days by MTT assay

Mycobacterium avium [26] = settings: 104 mc'2 3; remark: listed apart in the source
Mycobacterium avium [27] = settings: isolate MAV2; remark: listed apart in the source
Description: Inhibition of multidrug resistance efflux pump in Mycobacterium avium isolate MAV2 assessed as potentiation of clarithromycin -induced antibacterial activity by measuring clarithromycin MIC at 1/2 MIC incubated for 3 days by MTT assay (Rvb = >1024 ug/ml)

Mycobacterium avium [28] = settings: isolate MAV3; remark: listed apart in the source
Mycobacterium avium [29] = settings: isolate MAV3; remark: listed apart in the source
Mycobacterium avium [30] = settings: 104 mc'2 3; remark: listed apart in the source
Mycobacterium avium [31] = settings: 104 mc'2 4; remark: listed apart in the source
Mycobacterium avium [32] = settings: isolate MAV4; remark: listed apart in the source
Mycobacterium avium [33] = settings: 104 mc'2 4; remark: listed apart in the source
Mycobacterium avium [34] = settings: 104 mc'2 3; remark: listed apart in the source
Mycobacterium avium [35] = settings: 104 mc'2 3; remark: listed apart in the source
Mycobacterium avium [36] = settings: 104 mc'2 3; remark: listed apart in the source
Mycobacterium avium [37] = settings: 104; remark: listed apart in the source
[38] = system: Mycobacterium avium subsp. avium ATCC 25291; remark: listed apart in the source
Mycobacterium avium [39] = settings: isolate MAV4; remark: listed apart in the source
Mycobacterium avium [40] = settings: 104 mc'2 4; remark: listed apart in the source
Mycobacterium avium [41] = settings: 104; remark: listed apart in the source
Mycobacterium avium [42] = settings: isolate MAV1
Mycobacterium avium [43] = settings: isolate MAV2; remark: listed apart in the source

Work on `CCCOc1ccc(-c2cn(CCN3CCCCC3)c3ccccc3c2=O)cc1` yielded an MIC (Mycobacterium avium [1]) of 4 µg/mL (≈ 10.2 µM), an MIC (Mycobacterium avium [2]) of 3.12 µg/mL (≈ 8 µM) and an MIC (Mycobacterium avium [3]) of 1 µg/mL (≈ 2.56 µM). For the same molecule, the MIC (Mycobacterium avium [4]) was < 4 µg/mL, the MIC (Mycobacterium avium [5]) was 256 µg/mL (≈ 656 µM) and the MIC (Mycobacterium avium [6]) was 1 µg/mL (≈ 2.56 µM). For the same molecule, the MIC [7] was < 0.25 µg/mL, the MIC (Mycobacterium avium [8]) was 256 µg/mL (≈ 656 µM) and the MIC (Mycobacterium avium [9]) was < 0.125 µg/mL. The MIC (Mycobacterium avium [10]) was < 0.39 µg/mL, the MIC (Mycobacterium avium [11]) was 0.5 µg/mL (≈ 1.28 µM) and the MIC (Mycobacterium avium [12]) was 1 µg/mL (≈ 2.56 µM). It also gave an MIC (Mycobacterium avium [13]) of 256 µg/mL (≈ 656 µM), an MIC [14] of 32 µg/mL (≈ 81.9 µM) and a CC50 at 72 h [15] of 82.2 µM. The MTC [15] was 40 µM, the MIC (Mycobacterium avium [16]) was < 0.25 µg/mL and the MIC (Mycobacterium avium [17]) was < 0.125 µg/mL. The MIC (Mycobacterium avium [18]) was < 4 µg/mL, the MIC (Mycobacterium avium [19]) was < 0.125 µg/mL and the MIC (Mycobacterium avium [20]) was 256 µg/mL (≈ 656 µM). For the same molecule, the selectivity ratio [21] was 4 to 6, the MIC (Mycobacterium avium [22]) was > 256 µg/mL and the MIC (Mycobacterium avium [23]) was 256 µg/mL (≈ 656 µM). The MIC (Mycobacterium avium [24]) was 256 µg/mL (≈ 656 µM), the MIC (Mycobacterium avium [25]) was < 0.125 µg/mL and the MIC (Mycobacterium avium [26]) was 256 µg/mL (≈ 656 µM). The MIC (Mycobacterium avium [27]) was 256 µg/mL (≈ 656 µM), the MIC (Mycobacterium avium [28]) was 8 µg/mL (≈ 20.5 µM) and the MIC (Mycobacterium avium [29]) was 12.5 µg/mL (≈ 32 µM). It also gave an MIC (Mycobacterium avium [30]) of 512 µg/mL (≈ 1310 µM), an MIC (Mycobacterium avium [31]) of 2 µg/mL (≈ 5.12 µM) and an MIC (Mycobacterium avium [32]) of 4 µg/mL (≈ 10.2 µM). For the same molecule, the MIC (Mycobacterium avium [33]) was 4 µg/mL (≈ 10.2 µM), the MIC (Mycobacterium avium [34]) was < 4 µg/mL and the MIC (Mycobacterium avium [35]) was < 0.125 µg/mL. For the same molecule, the MIC (Mycobacterium avium [36]) was 8 µg/mL (≈ 20.5 µM), the MIC (Mycobacterium avium [37]) was < 0.125 µg/mL and the MIC [38] was 8 µg/mL (≈ 20.5 µM). For the same molecule, the MIC (Mycobacterium avium [39]) was 2 µg/mL (≈ 5.12 µM), the MIC (Mycobacterium avium [40]) was < 4 µg/mL and the MIC (Mycobacterium avium [41]) was < 0.125 µg/mL. The MIC (Mycobacterium avium [42]) was < 0.125 µg/mL and the MIC (Mycobacterium avium [43]) was 6.25 µg/mL (≈ 16 µM).
In the case of `CCCOc1ccc(-c2cn(CCN(CC)CC)c3ccccc3c2=O)cc1`, the MIC (Mycobacterium avium [1]) is reported as 2 µg/mL (≈ 5.28 µM), the MIC (Mycobacterium avium [2]) is reported as 6.25 µg/mL (≈ 16.5 µM) and the MIC (Mycobacterium avium [3]) is reported as 2 µg/mL (≈ 5.28 µM). For the same molecule, the MIC (Mycobacterium avium [4]) was 256 µg/mL (≈ 676 µM), the MIC (Mycobacterium avium [5]) was 16 µg/mL (≈ 42.3 µM) and the MIC (Mycobacterium avium [6]) was 8 µg/mL (≈ 21.1 µM). For the same molecule, the MIC [7] was 16 µg/mL (≈ 42.3 µM), the MIC (Mycobacterium avium [8]) was 256 µg/mL (≈ 676 µM) and the MIC (Mycobacterium avium [9]) was 32 µg/mL (≈ 84.5 µM). It also gave an MIC (Mycobacterium avium [10]) of 6.25 µg/mL (≈ 16.5 µM), an MIC (Mycobacterium avium [11]) of 4 µg/mL (≈ 10.6 µM) and an MIC (Mycobacterium avium [12]) of 0.5 µg/mL (≈ 1.32 µM). It also gave an MIC (Mycobacterium avium [13]) of 256 µg/mL (≈ 676 µM), an MIC [14] of 128 µg/mL (≈ 338 µM) and a CC50 at 72 h [15] of 56.9 µM. For the same molecule, the MTC [15] was 10 µM, the MIC (Mycobacterium avium [16]) was 2 µg/mL (≈ 5.28 µM) and the MIC (Mycobacterium avium [17]) was 2 µg/mL (≈ 5.28 µM). For the same molecule, the MIC (Mycobacterium avium [18]) was 128 µg/mL (≈ 338 µM), the MIC (Mycobacterium avium [19]) was 4 µg/mL (≈ 10.6 µM) and the MIC (Mycobacterium avium [20]) was 256 µg/mL (≈ 676 µM). It also gave a selectivity ratio [21] of 4 to 6, an MIC (Mycobacterium avium [22]) of 256 µg/mL (≈ 676 µM) and an MIC (Mycobacterium avium [23]) of 256 µg/mL (≈ 676 µM). The MIC (Mycobacterium avium [24]) was 16 µg/mL (≈ 42.3 µM), the MIC (Mycobacterium avium [25]) was 0.5 µg/mL (≈ 1.32 µM) and the MIC (Mycobacterium avium [26]) was 512 µg/mL (≈ 1350 µM). The MIC (Mycobacterium avium [27]) was 64 µg/mL (≈ 169 µM), the MIC (Mycobacterium avium [28]) was 32 µg/mL (≈ 84.5 µM) and the MIC (Mycobacterium avium [29]) was 12.5 µg/mL (≈ 33 µM). For the same molecule, the MIC (Mycobacterium avium [30]) was 512 µg/mL (≈ 1350 µM), the MIC (Mycobacterium avium [31]) was 4 µg/mL (≈ 10.6 µM) and the MIC (Mycobacterium avium [32]) was 16 µg/mL (≈ 42.3 µM). The MIC (Mycobacterium avium [33]) was 8 µg/mL (≈ 21.1 µM), the MIC (Mycobacterium avium [34]) was 128 µg/mL (≈ 338 µM) and the MIC (Mycobacterium avium [35]) was 8 µg/mL (≈ 21.1 µM). The MIC (Mycobacterium avium [36]) was 8 µg/mL (≈ 21.1 µM), the MIC (Mycobacterium avium [37]) was < 2 µg/mL and the MIC [38] was 64 µg/mL (≈ 169 µM). For the same molecule, the MIC (Mycobacterium avium [39]) was 8 µg/mL (≈ 21.1 µM), the MIC (Mycobacterium avium [40]) was 256 µg/mL (≈ 676 µM) and the MIC (Mycobacterium avium [41]) was 1 µg/mL (≈ 2.64 µM). It also gave an MIC (Mycobacterium avium [42]) of 0.5 µg/mL (≈ 1.32 µM) and an MIC (Mycobacterium avium [43]) of 6.25 µg/mL (≈ 16.5 µM).
`CN(C)CCCN1c2ccccc2Sc2ccc(Cl)cc21` [CHLORPROMAZINE] gave an MIC (Mycobacterium avium [1]) of 2 µg/mL (≈ 6.27 µM), an MIC (Mycobacterium avium [2]) of 6.25 µg/mL (≈ 19.6 µM) and an MIC (Mycobacterium avium [3]) of 4 µg/mL (≈ 12.5 µM). The MIC (Mycobacterium avium [4]) was < 4 µg/mL, the MIC (Mycobacterium avium [5]) was > 512 µg/mL and the MIC (Mycobacterium avium [6]) was 1 µg/mL (≈ 3.14 µM). The MIC [7] was < 0.25 µg/mL, the MIC (Mycobacterium avium [8]) was 30 µg/mL (≈ 94.1 µM) and the MIC (Mycobacterium avium [9]) was 64 µg/mL (≈ 201 µM). It also gave an MIC (Mycobacterium avium [10]) of 3.12 µg/mL (≈ 9.8 µM), an MIC (Mycobacterium avium [11]) of 0.5 µg/mL (≈ 1.57 µM) and an MIC (Mycobacterium avium [12]) of 2 µg/mL (≈ 6.27 µM). For the same molecule, the MIC (Mycobacterium avium [13]) was 30 µg/mL (≈ 94.1 µM), the MIC [14] was 16 µg/mL (≈ 50.2 µM) and the CC50 at 72 h [15] was 22.2 µM. The MTC [15] was 1.25 µM, the MIC (Mycobacterium avium [16]) was 2 µg/mL (≈ 6.27 µM) and the MIC (Mycobacterium avium [17]) was 2 µg/mL (≈ 6.27 µM). It also gave an MIC (Mycobacterium avium [18]) of 128 µg/mL (≈ 401 µM), an MIC (Mycobacterium avium [19]) of 2 µg/mL (≈ 6.27 µM) and an MIC (Mycobacterium avium [20]) of 30 µg/mL (≈ 94.1 µM). For the same molecule, the MIC (Mycobacterium avium [22]) was 30 µg/mL (≈ 94.1 µM), the MIC (Mycobacterium avium [23]) was 30 µg/mL (≈ 94.1 µM) and the MIC (Mycobacterium avium [24]) was > 512 µg/mL. For the same molecule, the MIC (Mycobacterium avium [25]) was 1 µg/mL (≈ 3.14 µM), the MIC (Mycobacterium avium [26]) was > 512 µg/mL and the MIC (Mycobacterium avium [27]) was > 512 µg/mL. The MIC (Mycobacterium avium [28]) was 16 µg/mL (≈ 50.2 µM), the MIC (Mycobacterium avium [29]) was 12.5 µg/mL (≈ 39.2 µM) and the MIC (Mycobacterium avium [30]) was > 512 µg/mL. It also gave an MIC (Mycobacterium avium [31]) of 4 µg/mL (≈ 12.5 µM), an MIC (Mycobacterium avium [32]) of 44 µg/mL (≈ 138 µM) and an MIC (Mycobacterium avium [33]) of 8 µg/mL (≈ 25.1 µM). The MIC (Mycobacterium avium [34]) was < 4 µg/mL, the MIC (Mycobacterium avium [35]) was 1 µg/mL (≈ 3.14 µM) and the MIC (Mycobacterium avium [36]) was 8 µg/mL (≈ 25.1 µM). For the same molecule, the MIC (Mycobacterium avium [37]) was < 4 µg/mL, the MIC [38] was 16 µg/mL (≈ 50.2 µM) and the MIC (Mycobacterium avium [39]) was 4 µg/mL (≈ 12.5 µM). For the same molecule, the MIC (Mycobacterium avium [40]) was 512 µg/mL (≈ 1610 µM), the MIC (Mycobacterium avium [41]) was 0.5 µg/mL (≈ 1.57 µM) and the MIC (Mycobacterium avium [42]) was < 0.031 µg/mL. It also gave an MIC (Mycobacterium avium [43]) of 12.5 µg/mL (≈ 39.2 µM).
